# According to patent US20240327427A1, “NEW COMPOUNDS FOR THE TREATMENT OF ALZHEIMER'S DISEASE” (Icahn School of Medicine at Mount Sinai, priority 2020, published 2024):
# Assays:
# [1] = system: Aβ42 flies; experiment: Neurodegeneration (vacuole area) in Aβ42 fly brains after drug feeding; assay type: in vivo, Drosophila
# Procedure: Aβ42 flies were treated with 0, 10, or 50 μM of NCH-51 during aging to examine its effects on neurodegeneration.
# Heads of male flies were fixed in 4% paraformaldehyde for 24 hours at 4° C. and embedded in paraffin. Serial sections (6 μm thickness) through the entire heads were prepared, stained with hematoxylin and eosin (Sigma-Aldrich), and examined by bright-field microscopy. Images of the sections were captured with AxioCam 105 color (Carl Zeiss). To score brain vacuolization, the inventors performed microscopy of serial brain sections within the central neuropil regions and selected the images with the most severe vacuolization from each fly to score area of vacuolization. The inventors selected the section with the most severe neurodegeneration in the same brain area from each individual fly and the area of vacuoles was measured using Image J (NIH). The analyses were performed more than two times and two to three persons were independently involved in these tasks to avoid any bias.
# Flies were fed with the food containing 10 μM or 50 μM NCH51 or vehicle (final concentration 0.02% dimethyl sulfoxide) from the day after eclosion. These food vials were changed every 3-4 days.
# [2] = system: ATP6V1A; experiment: ATP6V1A mRNA expression in drug-treated NPCs (LINCS profiles); assay type: cell-based, human; conditions: drug-treated vs DMSO-treated, LINCS data
# Source text: Compounds were screened for drugs that can rescue the in vitro and in vivo phenotypes arising from ATP6V1A deficits. Using their drug repositioning tool, Ensemble of Multiple Drug Repositioning Approaches (EMUDRA) (Zhou et al., 2018b), the inventors matched the disease signature from the BM36-PHG region and the signatures of 3,629 drugs tested in the NPCs in the Library of Integrated Network-based Cellular Signatures (LINCS) project (FIG. 6A). The inventors further prioritized candidate drugs by their potential to increase the mRNA expression of ATP6V1A in the NPCs.
# To identify existing drugs that can restore the molecular expression change in the LOAD brains, the inventors performed a drug repositioning analysis using EMUDRA, which provides a novel computational algorithm to match disease signatures and drug-induced signatures. The inventors downloaded drug-treated gene expression profiles (level 3 data of quantile-normalized and log 2 transformed expression levels from human iPSC-derived neural progenitor cells (NPCs) from the Library of Integrated Network-Based Cellular Signatures (LINCS) program. After removing probes sets mapping to multiple genes or without known gene annotation, the remaining data were adjusted for batch effects using linear regression. The mean expression level of multiple probe sets that match to the same gene was used as the expression level for that gene. For each drug, the applied drug signature was the transcriptome-wide expression difference between drug-treated and DMSO-treated gene expression profiles. The inventors matched each of the drug signatures to the LOAD signature using EMUDRA to find drugs that could reverse the LOAD signature. […] In total, 3,629 drug signatures were analyzed and ranked. The inventors further prioritized the top-ranked drugs that can increase ATP6V1A mRNA expression in the NPCs.
# [3] = system: ATP6V1A; experiment: ATP6V1A mRNA (qRT-PCR) and protein (western blot) levels in hiPSC-derived NGN2 neurons (iNs); assay type: cell-based, human
# Procedure: To verify this discovery, the inventors measured the transcriptional and translational levels of ATP6V1A in D21 iNs treated with the 3 HDAC inhibitors at a series of concentrations between 1 and 30 μM.
# CRISPR inhibition (CRISPRi) was used to repress endogenous ATP6V1A in hiPSC-derived NGN2 neurons. […] Next, the inventors investigated whether LQ081-166 rescued the phenotypes of ATP6V1A deficit and reduced neuronal activity.
# Quantitative reverse transcription PCR (qRT-PCR) was performed as previously described. Specifically, cell cultures were harvested with Trizol and total RNA extraction was carried out following the manufacturer's instructions. Quantitative transcript analysis was performed using a QuantStudio 7 Flex Real-Time PCR System with the Power SYBR Green RNA-to-Ct Real-Time qPCR Kit (all Thermo Fisher Scientific). Total RNA template (25 ng per reaction) was added to the PCR mix, including primers listed below. qPCR conditions were as follows; 48° C. for 30 min, 95° C. for 10 min followed by 40 cycles (95° C. for 15 s, 60° C. for 60 s). All qPCR data is collected from at least 3 independent biological replicates of one experiment. Data analyses were performed using GraphPad PRISM 6 software.
# Cells were rinsed with ice-cold phosphate-buffered saline (PBS), pelleted, and lyzed in RIPA Lysis and Extraction Buffer (Thermo Fisher Scientific, #89900) containing Halt™ Protease and Phosphatase Inhibitor Cocktail (Thermo Fisher Scientific, #78440). Alternatively, MSBB BM36 brain samples were homogenized with similar methods. Samples were sonicated for 1 minute then centrifuged at 13,000× rpm for 10 min. The supernatant was collected, and total protein concentration was determined using Quick Start™ Bradford Protein Assay (Bio-Rad, 5000201) following the manufacturer's instructions.
# Images were captured and quantified using the Odyssey® Imaging Systems (LI-COR. Inc.).
# A stock solution of LQ081-166 (molecular weight: 452.63) at 3 mM is prepared in dimethyl sulfoxide (DMSO). Once prepared, aliquot the stock solution into 100 μL amounts and store at −80° C. Avoid repeated freeze-thaw cycles. The stock is diluted 1000× into neuronal medium to obtain 3 μM for assays. After 24-hour treatment, RNA was extracted from cells for quantitative PCR. In the MEA assay, LQ081-166 was added on neuronal differentiation day 14. Replace with medium containing drug or vehicle every 2-3 days until the final recording day.
# [4] = Aβ42 flies, 50 μM in food vs 0 μM
compound,measurement,setting,value
CC(C)C(=O)SCCCCCCC(=O)Nc1nc(-c2ccccc2)cs1 [NCH-51],neurodegeneration in cell body and central neuropil regions,[1]; 21-day-old Aβ42 fly brains,suppressed neurodegeneration
same,cell loss (cell body region neurodegeneration),[1]; [4],significantly suppressed
same,neuropil degeneration,[1]; [4],significantly suppressed
same,ATP6V1A (log2FC),[2],0.71 log2FC
same,ATP6V1A mRNA level,"[3]; 3 μM, 24-hr, particularly in ATP6V1A KD iNs, P<0.05",dramatically elevates
same,transcriptional and translational levels of ATP6V1A,"[3]; D21 iNs, concentrations between 1 and 30 μM",effectively increased ATP6V1A levels
same,ATP6V1A protein yield,"[3]; iNs, 3 μM",significantly increase the protein yield
same,ATP6V1A protein level,"[3]; iNs, 3 μM, P<0.05",similarly increased
